Results published in patent publication US20260138976A1 (Hoffmann-La Roche Inc., priority 2022, published 2026).

Tested on: primary human T-cells
Assay: IL2 secretion measurements (24 h, CD3-stimulated T-cells, PBS counter screen)
Assay type: cell-based
Settings: for Emax IL2 (% activation): CD3 condition, normalised to DMSO (neutral) and 20 μM reference compound A1 = 100%; for EC50: Homo sapiens, T-cell, CD3-stimulated primary human T-cells, IL2 secretion, fitted sigmoidal curve, read-out: Tcell IL2 CD3 EC50
Method in brief: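 Expanded primary human T-cells (100k/well) were plated on anti-CD3-coated or PBS-only plates with compound in a 5–6 point dose response (top 20 or 10 μM final, 3.333-fold, 0.2% DMSO). IL-2 in 24 h supernatants was quantified by ProQuantum immunoassay or ELISA. Values were normalized to DMSO and 20 μM reference compound A1 (100%), giving EC50 and Emax.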

SMILES: N[C@H]1CS(=O)(=O)c2cc(F)c(-c3noc(N4CCOC(F)(F)C4)n3)cc2N(Cc2ccc(-c3ccc(C(F)(F)F)cc3)nc2)C1=O [Example 13, (3R)-3-amino-7-[5-(2,2-difluoromorpholin-4-yl)-1,2,4-oxadiazol-3-yl]-8-fluoro-1,1-dioxo-5-[[6-[4-(trifluoromethyl)phenyl]-3-pyridyl]methyl]-2,3-dihydro-1λ^6,5-benzothiazepin-4-one]
- Emax IL2 (% activation): 26 % activation
- EC50: > 10000 nM

SMILES: N[C@H]1CS(=O)(=O)c2cc(F)c(-c3noc(N4CCOC5(CC5)C4)n3)cc2N(Cc2ccc(-c3noc(C(F)(F)F)n3)nc2)C1=O [Example 14, (3R)-3-amino-8-fluoro-7-[5-(4-oxa-7-azaspiro[2.5]octan-7-yl)-1,2,4-oxadiazol-3-yl]-1,1-dioxo-5-[[6-[5-(trifluoromethyl)-1,2,4-oxadiazol-3-yl]-3-pyridyl]methyl]-2,3-dihydro-1λ^6,5-benzothiazepin-4-one]
- Emax IL2 (% activation): 93 % activation
- EC50: 3990 nM

SMILES: N#CC1(c2nc(-c3cc4c(cc3F)S(=O)(=O)C[C@H](N)C(=O)N4Cc3ccc(-c4noc(C(F)(F)F)n4)cc3)no2)CC1 [Example 16, 1-[3-[(3R)-3-amino-8-fluoro-1,1,4-trioxo-5-[[4-[5-(trifluoromethyl)-1,2,4-oxadiazol-3-yl]phenyl]methyl]-2,3-dihydro-1λ^6,5-benzothiazepin-7-yl]-1,2,4-oxadiazol-5-yl]cyclopropanecarbonitrile]
- Emax IL2 (% activation): 315 % activation
- EC50: 368 nM

SMILES: N#CC1(c2nc(-c3cc4c(cc3F)S(=O)(=O)C[C@H](N)C(=O)N4Cc3ccc(-c4ccc(C(F)(F)F)cn4)cc3)no2)CC1 [Example 17]
- Emax IL2 (% activation): 221 % activation
- EC50: 1540 nM

SMILES: N[C@H]1CS(=O)(=O)c2cc(F)c(-c3noc(C4(CO)CCCO4)n3)cc2N(Cc2ccc(-c3noc(C(F)(F)F)n3)cc2)C1=O (stereo partly drawn) [Example 18, (3R)-3-amino-8-fluoro-7-[5-[2-(hydroxymethyl)tetrahydrofuran-2-yl]-1,2,4-oxadiazol-3-yl]-1,1-dioxo-5-[[4-[5-(trifluoromethyl)-1,2,4-oxadiazol-3-yl]phenyl]methyl]-2,3-dihydro-1λ^6,5-benzothiazepin-4-one]
- Emax IL2 (% activation): 529 % activation
- EC50: 849 nM

SMILES: CC(C)(C)c1nnc(-c2ccc(CN3C(=O)[C@@H](N)CS(=O)(=O)c4ccc(-c5nnc(C(C)(C)C)o5)cc43)cc2)o1 [Example 19, (3R)-3-amino-7-(5-tert-butyl-1,3,4-oxadiazol-2-yl)-5-[[4-(5-tert-butyl-1,3,4-oxadiazol-2-yl)phenyl]methyl]-1,1-dioxo-2,3-dihydro-1λ^6,5-benzothiazepin-4-one]
- Emax IL2 (% activation): 40 % activation
- EC50: > 10000 nM

SMILES: Cc1cc(C)n(-c2ccc(CN3C(=O)[C@@H](N)CS(=O)(=O)c4ccc(-c5nnc(C(C)(C)C)o5)cc43)cc2)n1 [Example 22, (3R)-3-amino-7-(5-tert-butyl-1,3,4-oxadiazol-2-yl)-5-[[4-(3,5-dimethylpyrazol-1-yl)phenyl]methyl]-1,1-dioxo-2,3-dihydro-1λ^6,5-benzothiazepin-4-one]
- Emax IL2 (% activation): 75 % activation
- EC50: 4580 nM

SMILES: CC(C)(C)C(N)c1nnc(-c2ccc3c(c2)N(Cc2ccc(-c4noc(C(F)(F)F)n4)cc2)C(=O)[C@@H](N)CS3(=O)=O)o1 (stereo partly drawn) [Example 34, (3R)-3-amino-7-[5-(1-amino-2,2-dimethyl-propyl)-1,3,4-oxadiazol-2-yl]-1,1-dioxo-5-[[4-[5-(trifluoromethyl)-1,2,4-oxadiazol-3-yl]phenyl]methyl]-2,3-dihydro-1λ^6,5-benzothiazepin-4-one]
- Emax IL2 (% activation): 69 % activation
- EC50: 4900 nM

SMILES: CC(C#N)c1nnc(-c2ccc3c(c2)N(Cc2ccc(-c4noc(C(F)(F)F)n4)cc2)C(=O)[C@@H](N)CS3(=O)=O)o1 (stereo partly drawn) [Example 35, 2-[5-[(3R)-3-amino-1,1,4-trioxo-5-[[4-[5-(trifluoromethyl)-1,2,4-oxadiazol-3-yl]phenyl]methyl]-2,3-dihydro-1λ^6,5-benzothiazepin-7-yl]-1,3,4-oxadiazol-2-yl]propanenitrile]
- Emax IL2 (% activation): 193 % activation
- EC50: 2150 nM

SMILES: COC(F)(c1nnc(-c2ccc3c(c2)N(Cc2ccc(-c4noc(C(F)(F)F)n4)cc2)C(=O)[C@@H](N)CS3(=O)=O)o1)C(F)(F)F (stereo partly drawn) [Example 37, (3R)-3-amino-1,1-dioxo-7-[5-(1,2,2,2-tetrafluoro-1-methoxy-ethyl)-1,3,4-oxadiazol-2-yl]-5-[[4-[5-(trifluoromethyl)-1,2,4-oxadiazol-3-yl]phenyl]methyl]-2,3-dihydro-1λ^6,5-benzothiazepin-4-one]
- Emax IL2 (% activation): 198 % activation
- EC50: 338 nM

SMILES: CC(C)(C#N)c1nnc(-c2ccc3c(c2)N(Cc2ccc(-c4noc(C(F)(F)F)n4)cc2)C(=O)[C@@H](N)CS3(=O)=O)o1 [Example 38, 2-[5-[(3R)-3-amino-1,1,4-trioxo-5-[[4-[5-(trifluoromethyl)-1,2,4-oxadiazol-3-yl]phenyl]methyl]-2,3-dihydro-1λ^6,5-benzothiazepin-7-yl]-1,3,4-oxadiazol-2-yl]-2-methyl-propanenitrile]
- Emax IL2 (% activation): 311 % activation
- EC50: 3110 nM

SMILES: N[C@H]1CS(=O)(=O)c2ccc(-c3nnc(C4(N)CCCCC4)o3)cc2N(Cc2ccc(-c3ccc(C(F)(F)F)cn3)cc2)C1=O [Example 41, (3R)-3-amino-7-[5-(1-aminocyclohexyl)-1,3,4-oxadiazol-2-yl]-1,1-dioxo-5-[[4-[5-(trifluoromethyl)-2-pyridyl]phenyl]methyl]-2,3-dihydro-1λ^6,5-benzothiazepin-4-one]
- Emax IL2 (% activation): 66 % activation
- EC50: 3340 nM

SMILES: N[C@H]1CS(=O)(=O)c2ccc(-c3nnc(C4(N)CCCCC4)o3)cc2N(Cc2ccc(-c3ccc(C(F)(F)F)cc3)cc2)C1=O [Example 42, (3R)-3-amino-7-[5-(1-aminocyclohexyl)-1,3,4-oxadiazol-2-yl]-1,1-dioxo-5-[[4-[4-(trifluoromethyl)phenyl]phenyl]methyl]-2,3-dihydro-1λ^6,5-benzothiazepin-4-one]
- Emax IL2 (% activation): 128 % activation
- EC50: 1390 nM

SMILES: COc1ccc(-c2ccc(CN3C(=O)[C@@H](N)CS(=O)(=O)c4ccc(-c5nnc(C6(N)CCCCC6)o5)cc43)cc2)cc1 [Example 43, (3R)-3-amino-7-[5-(1-aminocyclohexyl)-1,3,4-oxadiazol-2-yl]-5-[[4-(4-methoxyphenyl)phenyl]methyl]-1,1-dioxo-2,3-dihydro-1λ^6,5-benzothiazepin-4-one]
- Emax IL2 (% activation): 89 % activation
- EC50: 771 nM

SMILES: COc1ccc(-c2ccc(CN3C(=O)[C@@H](N)CS(=O)(=O)c4ccc(-c5nnc(C6(F)CCCN(C)C6)o5)cc43)cc2)cc1 (stereo partly drawn) [Example 50, (3R)-3-amino-7-[5-(3-fluoro-1-methyl-3-piperidyl)-1,3,4-oxadiazol-2-yl]-5-[[4-(4-methoxyphenyl)phenyl]methyl]-1,1-dioxo-2,3-dihydro-1λ^6,5-benzothiazepin-4-one]
- Emax IL2 (% activation): 119 % activation
- EC50: 3600 nM

SMILES: CN1CCCC(F)(c2nnc(-c3ccc4c(c3)N(Cc3ccc(-c5ccc(C(F)(F)F)cn5)cc3)C(=O)[C@@H](N)CS4(=O)=O)o2)C1 (stereo partly drawn) [Example 51, (3R)-3-amino-7-[5-(3-fluoro-1-methyl-3-piperidyl)-1,3,4-oxadiazol-2-yl]-1,1-dioxo-5-[[4-[5-(trifluoromethyl)-2-pyridyl]phenyl]methyl]-2,3-dihydro-1λ^6,5-benzothiazepin-4-one]
- Emax IL2 (% activation): 135 % activation
- EC50: 2490 nM

SMILES: N[C@H]1CS(=O)(=O)c2ccc(-c3nnc(C4(CO)CCCO4)o3)cc2N(Cc2ccc(-c3noc(C(F)(F)F)n3)cc2)C1=O (stereo partly drawn) [Example 54, (3R)-3-amino-7-[5-[2-(hydroxymethyl)tetrahydrofuran-2-yl]-1,3,4-oxadiazol-2-yl]-1,1-dioxo-5-[[4-[5-(trifluoromethyl)-1,2,4-oxadiazol-3-yl]phenyl]methyl]-2,3-dihydro-1λ^6,5-benzothiazepin-4-one]
- Emax IL2 (% activation): 126 % activation
- EC50: 3340 nM

SMILES: COC(=O)N1CC(c2nnc(-c3ccc4c(c3)N(Cc3ccc(-c5noc(C(C)(C)C)n5)cc3)C(=O)[C@@H](N)CS4(=O)=O)o2)CC(F)(F)C1 (stereo partly drawn) [Example 56, methyl 3,3-difluoro-5-[5-[(3R)-3-amino-5-[[4-(5-tert-butyl-1,2,4-oxadiazol-3-yl)phenyl]methyl]-1,1,4-trioxo-2,3-dihydro-1λ^6,5-benzothiazepin-7-yl]-1,3,4-oxadiazol-2-yl]piperidine-1-carboxylate]
- Emax IL2 (% activation): 109 % activation
- EC50: 940 nM

SMILES: COC(=O)N1CC(c2nnc(-c3ccc4c(c3)N(Cc3ccc(-c5ccc(C(F)(F)F)cc5)nc3)C(=O)[C@@H](N)CS4(=O)=O)o2)CC(F)(F)C1 (stereo partly drawn) [Example 57, methyl 3,3-difluoro-5-[5-[(3R)-3-amino-1,1,4-trioxo-5-[[6-[4-(trifluoromethyl)phenyl]-3-pyridyl]methyl]-2,3-dihydro-1λ^6,5-benzothiazepin-7-yl]-1,3,4-oxadiazol-2-yl]piperidine-1-carboxylate]
- Emax IL2 (% activation): 100 % activation
- EC50: 652 nM

SMILES: COC(=O)N1CC2CC(c3nnc(-c4ccc5c(c4)N(Cc4ccc(-c6ccc(C(F)(F)F)cc6)nc4)C(=O)[C@@H](N)CS5(=O)=O)o3)(C2)C1 [Example 58, methyl 1-[5-[(3R)-3-amino-1,1,4-trioxo-5-[[6-[4-(trifluoromethyl)phenyl]-3-pyridyl]methyl]-2,3-dihydro-1λ^6,5-benzothiazepin-7-yl]-1,3,4-oxadiazol-2-yl]-3-azabicyclo[3.1.1]heptane-3-carboxylate]
- Emax IL2 (% activation): 505 % activation
- EC50: 4710 nM
